# Results from US11685746B2, “Heteroaryl compounds for treating Huntington's disease” (PTC THERAPEUTICS, INC., priority 2018, dated 2023).
# System: Endogenous Huntingtin Protein
# Test: Endogenous Huntingtin Protein Assay (MSD plates, MW1 or MAB2166 capture antibody)
# Type: cell-based
# Conditions: Table 1
# Method in brief: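 Sandwich MSD immunoassay: plates were coated overnight at 4° C with MW1 (expanded polyQ) or MAB2166 capture antibody at 1 μg/mL, then blocked with 5% BSA. Samples were bound overnight at 4° C, followed by rabbit mAb #5656S and SULFO-TAG anti-rabbit detection, each at 0.25 μg/mL for 1 h at room temperature. Signal was read by electrochemiluminescence.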
row,Structure (SMILES),IC50 [nM]
1,"Cc1cn(-c2cnc(-c3nc4sc(N(C)C5CCNCC5)nc4s3)c(O)c2)cn1 [Compound 221, 5-(4-methyl-1H-imidazol-1-yl)-2-{5-[methyl(piperidin-4-yl)amino][1,3]thiazolo[5,4-d][1,3]thiazol-2-yl}pyridin-3-ol]",≤ 100
2,"Cc1cn2cc(-c3nn4cc(C5CCNCC5)nc4s3)cc(C#N)c2n1 [Compound 29, 2-methyl-6-[6-(piperidin-4-yl)imidazo[2,1-b][1,3,4]thiadiazol-2-yl]imidazo[1,2-a]pyridine-8-carbonitrile]",100 to 500
3,"CN(c1nc2sc(-c3ncc(-n4cc(F)cn4)cc3O)nc2s1)[C@@H]1C[C@H]2CC[C@@H](C1)N2 [Compound 193, 2-(5-{[(1R,3s,5S)-8-azabicyclo[3.2.1]octan-3-yl](methyl)amino}[1,3]thiazolo[5,4-d][1,3]thiazol-2-yl)-5-(4-fluoro-1H-pyrazol-1-yl)pyridin-3-ol]",≤ 100
4,"CN(c1nc2sc(-c3ncc(-c4cn[nH]c4)cc3O)nc2s1)[C@H]1CCNC1 [Compound 213, 2-(5-{methyl[(3S)-pyrrolidin-3-yl]amino}[1,3]thiazolo[5,4-d][1,3]thiazol-2-yl)-5-(1H-pyrazol-4-yl)pyridin-3-ol]",≤ 100
5,"CN(c1nc2sc(-c3ncc(-c4cn[nH]c4Cl)cc3O)nc2s1)C1CCNCC1 [Compound 220, 5-(5-chloro-1H-pyrazol-4-yl)-2-{5-[methyl(piperidin-4-yl)amino][1,3]thiazolo[5,4-d][1,3]thiazol-2-yl}pyridin-3-ol]",≤ 100
6,"CN(c1nc2sc(-c3nccc4cc[nH]c34)nc2s1)[C@@H]1C[C@H]2CC[C@@H](C1)N2 [Compound 160, N-[(1R,3s,5S)-8-azabicyclo[3.2.1]octan-3-yl]-N-methyl-5-(1H-pyrrolo[2,3-c]pyridin-7-yl)[1,3]thiazolo[5,4-d][1,3]thiazol-2-amine]",100 to 500
7,"CN1CCCC2(CCN2c2nc3sc(-c4ncc(-c5cn[nH]c5)c5cc[nH]c45)nc3s2)C1 (centres unmarked) [Compound 96, 7-[5-(6-methyl-1,6-diazaspiro[3.5]nonan-1-yl)[1,3]thiazolo[5,4-d][1,3]thiazol-2-yl]-4-(1H-pyrazol-4-yl)-1H-pyrrolo[2,3-c]pyridine]",≤ 100
8,"Oc1cc(-c2cn[nH]c2)cnc1-c1nc2sc(N3CC4(CC5CCC(C4)N5)C3)nc2s1 [Compound 197, 5-(1H-pyrazol-4-yl)-2-[5-(spiro[8-azabicyclo[3.2.1]octane-3,3′-azetidin]-1′-yl)[1,3]thiazolo[5,4-d][1,3]thiazol-2-yl]pyridin-3-ol]",1000 to 3000
9,"CCn1cc(-c2cnc(-c3nc4sc(N(C)C5CCNCC5)nc4s3)c(O)c2)cn1 [Compound 52, 5-(1-ethyl-1H-pyrazol-4-yl)-2-{5-[methyl(piperidin-4-yl)amino][1,3]thiazolo[5,4-d][1,3]thiazol-2-yl}pyridin-3-ol]",1000 to 3000
10,"CN(c1nc2sc(-c3ncc(-n4cncn4)cc3O)nc2s1)C1CCNCC1 [Compound 212, 2-{5-[methyl(piperidin-4-yl)amino][1,3]thiazolo[5,4-d][1,3]thiazol-2-yl}-5-(1H-1,2,4-triazol-1-yl)pyridin-3-ol]",100 to 500
11,"C[C@H]1C[C@@H](Oc2nc3sc(-c4ncc(-c5cn[nH]c5)c5cc[nH]c45)nc3s2)CCN1 [Compound 120, 7-(5-{[(2S,4S)-2-methylpiperidin-4-yl]oxy}[1,3]thiazolo[5,4-d][1,3]thiazol-2-yl)-4-(1H-pyrazol-4-yl)-1H-pyrrolo[2,3-c]pyridine]",≤ 100
12,"CN(c1nc2sc(-c3cc(F)c(-c4cn[nH]c4)c(F)c3)nc2s1)C1CC(C)(C)NC(C)(C)C1 [Compound 5, 5-[3,5-difluoro-4-(1H-pyrazol-4-yl)phenyl]-N-methyl-N-(2,2,6,6-tetramethylpiperidin-4-yl)[1,3]thiazolo[5,4-d][1,3]thiazol-2-amine]",≤ 100
13,"CCN(c1nc2sc(-c3ncc(-c4cn[nH]c4)cc3O)nc2s1)C1CCN(C)CC1 [Compound 218, 2-{5-[ethyl(1-methylpiperidin-4-yl)amino][1,3]thiazolo[5,4-d][1,3]thiazol-2-yl}-5-(1H-pyrazol-4-yl)pyridin-3-ol]",≤ 100
14,"CN(c1nc2sc(-c3ncc(-c4cn[nH]c4)cc3O)nc2s1)C1CCN2CCCC2C1 (centres unmarked) [Compound 145, 2-{5-[methyl(octahydroindolizin-7-yl)amino][1,3]thiazolo[5,4-d][1,3]thiazol-2-yl}-5-(1H-pyrazol-4-yl)pyridin-3-ol]",≤ 100
15,"C[C@H]1C[C@H](Oc2nc3sc(-c4ncc(-c5cn[nH]c5)c5cc[nH]c45)nc3s2)CCN1C [Compound 84, 7-(5-{[(2S,4R)-1,2-dimethylpiperidin-4-yl]oxy}[1,3]thiazolo[5,4-d][1,3]thiazol-2-yl)-4-(1H-pyrazol-4-yl)-1H-pyrrolo[2,3-c]pyridine]",≤ 100
16,"CN1C2CCC1CC(Nc1nn3cc(-c4ccc(-c5cn[nH]c5)cc4O)nc3s1)C2 (stereo not drawn) [Compound 19, 2-(2-{[(3-exo)-8-methyl-8-azabicyclo[3.2.1]oct-3-yl]amino]imidazo[2,1-b][1,3,4]thiadiazol-6-yl)-5-(1H-pyrazol-4-yl)phenol]",100 to 500

row,Structure (SMILES),IC50 [nM]
1,"CN(c1nc2sc(-c3cnc(-c4cnn(C)c4)cn3)nc2s1)[C@H]1C[C@]2(C)CC[C@](C)(C1)N2 [Compound 89, N-[(1R,3s,5S)-1,5-dimethyl-8-azabicyclo[3.2.1]octan-3-yl]-N-methyl-5-[5-(1-methyl-1H-pyrazol-4-yl)pyrazin-2-yl][1,3]thiazolo[5,4-d][1,3]thiazol-2-amine]",≤ 100
2,"CN(c1nc2sc(-c3ccc(-c4cn[nH]c4)nc3)nc2s1)[C@@H]1C[C@H]2CC[C@@H](C1)N2 [Compound 173, N-[(1R,3s,5S)-8-azabicyclo[3.2.1]octan-3-yl]-N-methyl-5-[6-(1H-pyrazol-4-yl)pyridin-3-yl][1,3]thiazolo[5,4-d][1,3]thiazol-2-amine]",≤ 100
3,"CN(c1nc2sc(-c3ncc(-c4cn[nH]c4)c4cc[nH]c34)nc2s1)C1CCNCC1 [Compound 139, N-methyl-N-(piperidin-4-yl)-5-[4-(1H-pyrazol-4-yl)-1H-pyrrolo[2,3-c]pyridin-7-yl][1,3]thiazolo[5,4-d][1,3]thiazol-2-amine]",≤ 100
4,"CN(c1nc2sc(-c3ncc(-n4ccnn4)cc3O)nc2s1)C1CCNCC1 [Compound 215, 2-{5-[methyl(piperidin-4-yl)amino][1,3]thiazolo[5,4-d][1,3]thiazol-2-yl}-5-(1H-1,2,3-triazol-1-yl)pyridin-3-ol]",100 to 500
5,"C[C@H]1C[C@@H](N(C)c2nc3sc(-c4cnc(-c5cn[nH]c5)cn4)nc3s2)CCN1 [Compound 99, N-methyl-N-[(2S,4S)-2-methylpiperidin-4-yl]-5-[5-(1H-pyrazol-4-yl)pyrazin-2-yl][1,3]thiazolo[5,4-d][1,3]thiazol-2-amine]",500 to 1000
6,"CN(c1nc2sc(-c3ncc(-c4cn[nH]c4)cc3O)nc2s1)C1CCNCC1 [Compound 47, 2-{5-[methyl(piperidin-4-yl)amino][1,3]thiazolo[5,4-d][1,3]thiazol-2-yl}-5-(1H-pyrazol-4-yl)pyridin-3-ol]",≤ 100
7,"CN(c1nc2sc(-c3ccc(-c4ccnc(O)c4)cc3O)nc2s1)C1CCNCC1 [Compound 35, 4-(3-hydroxy-4-{5-[methyl(piperidin-4-yl)amino][1,3]thiazolo[5,4-d][1,3]thiazol-2-yl}phenyl)pyridin-2-ol]",3000 to 9000
8,"CCN1[C@@H]2CC[C@H]1C[C@H](N(C)c1nc3sc(-n4ccc(-c5cn[nH]c5)cc4=O)nc3s1)C2 [Compound 166, 1-(5-{[(1R,3s,5S)-8-ethyl-8-azabicyclo[3.2.1]octan-3-yl](methyl)amino}[1,3]thiazolo[5,4-d][1,3]thiazol-2-yl)-4-(1H-pyrazol-4-yl)pyridin-2(1H)-one]",≤ 100
9,"Cn1cc2cc(-c3nn4cc(C5CCNCC5)nc4s3)cc(F)c2n1 [Compound 28, 7-fluoro-2-methyl-5-[6-(piperidin-4-yl)imidazo[2,1-b][1,3,4]thiadiazol-2-yl]-2H-indazole]",≤ 100
10,"CN(c1nn2cc(-c3ccc(-c4cn[nH]c4)cc3O)nc2s1)C1CC(C)(C)NC(C)(C)C1 [Compound 17, 2-{2-[methyl(2,2,6,6-tetramethylpiperidin-4-yl)amino]imidazo[2,1-b][1,3,4]thiadiazol-6-yl}-5-(1H-pyrazol-4-yl)phenol]",500 to 1000
11,"CN1CCC2(CC1)CN(c1nc3sc(-c4ncc(-c5cn[nH]c5)cc4O)nc3s1)C2 [Compound 196, 2-[5-(7-methyl-2,7-diazaspiro[3.5]nonan-2-yl)[1,3]thiazolo[5,4-d][1,3]thiazol-2-yl]-5-(1H-pyrazol-4-yl)pyridin-3-ol]",≤ 100
12,"CC1CC(N(C)c2nc3sc(-c4ccc(Cl)c5cc[nH]c45)nc3s2)CCN1C (centres unmarked) [Compound 119, 5-(4-chloro-1H-indol-7-yl)-N-(1,2-dimethylpiperidin-4-yl)-N-methyl[1,3]thiazolo[5,4-d][1,3]thiazol-2-amine]",1000 to 3000
13,"CC1CC(N(C)c2nc3sc(-c4ccc(-c5cn[nH]c5)c5cn[nH]c45)nc3s2)CCN1C (centres unmarked) [Compound 108, N-(1,2-dimethylpiperidin-4-yl)-N-methyl-5-[4-(1H-pyrazol-4-yl)-1H-indazol-7-yl][1,3]thiazolo[5,4-d][1,3]thiazol-2-amine]",≤ 100
14,"CN(c1nc2sc(-c3ncc(-c4cn[nH]c4)nn3)nc2s1)C1CC(C)(C)NC(C)(C)C1 [Compound 100, N-methyl-5-[6-(1H-pyrazol-4-yl)-1,2,4-triazin-3-yl]-N-(2,2,6,6-tetramethylpiperidin-4-yl)[1,3]thiazolo[5,4-d][1,3]thiazol-2-amine]",≤ 100
15,"CN(c1nc2sc(-c3ccc(-c4cn[nH]c4)cn3)nc2s1)[C@@H]1C[C@H]2CC[C@@H](C1)N2 [Compound 174, N-[(1R,3s,5S)-8-azabicyclo[3.2.1]octan-3-yl]-N-methyl-5-[5-(1H-pyrazol-4-yl)pyridin-2-yl][1,3]thiazolo[5,4-d][1,3]thiazol-2-amine]",≤ 100
16,"CC1(C)CC(Oc2nc3sc(-c4cnc(-c5cn[nH]c5)cn4)nc3s2)CC(C)(C)N1 [Compound 143, 2-[5-(1H-pyrazol-4-yl)pyrazin-2-yl]-5-[(2,2,6,6-tetramethylpiperidin-4-yl)oxy][1,3]thiazolo[5,4-d][1,3]thiazole]",≤ 100
